Test results reported in ChEMBL document CHEMBL3399955, “Synthesis of a new series of dithiocarbamates with effective human carbonic anhydrase inhibitory activity and antiglaucoma action” (Bioorg Med Chem, 2015).

Legend:
Carbonic anhydrase 9 = Carbonic anhydrase 9 (Homo sapiens, UniProt Q16790); assay: Inhibition of human recombinant carbonic anhydrase 9 expressed in Escherichia coli pre-incubated for 15 mins by stopped-flow CO2 hydration assay
Oryctolagus cuniculus [1] = assay: Antiglaucoma activity in New Zealand albino rabbit model of glaucoma assessed as reduction in intraocular pressure dosed as 2% eye drops immediately after injection of hypertonic saline measured 2 hrs post dose; type: functional
Homo sapiens [2] = species on record: Homo sapiens; assay: Reduction in intraocular pressure in glaucoma patient; type: functional, Eye
Oryctolagus cuniculus [3] = assay: Antiglaucoma activity in New Zealand albino rabbit model of glaucoma assessed as reduction in intraocular pressure dosed as 2% eye drops immediately after injection of hypertonic saline measured 1 hr post dose; type: functional
Homo sapiens [4] = species on record: Homo sapiens; assay: Reduction in intraocular pressure in patient with open-angle glaucoma; type: functional, Eye

Structure (SMILES)	Ki (Carbonic anhydrase 9) [nM]	other results
OCCCNC(=S)S	0.91	
CC(=O)NC1CCCN(C(=S)S)C1 (centres undefined)	9.5	
S=C(S)N[C@@H]1CN2CCC1CC2	82.4	
OCCCCCNC(=S)S	2.6	
CCN[C@H]1C[C@H](C)S(=O)(=O)c2sc(S(N)(=O)=O)cc21 [DORZOLAMIDE]		Activity (Oryctolagus cuniculus [1]): 3 mmHg; Activity (Homo sapiens [2]): 4 mmHg; Activity (Oryctolagus cuniculus [3]): 4 mmHg
S=C(S)N[C@H]1CN2CCC1CC2	71.8	
NS(=O)(=O)c1ccc(CCNC(=S)S)cc1	0.91	
CC1COCCN1C(=S)S (centres undefined)	55.1	
O=C(O)C1COCCN1C(=S)S (centres undefined)	6.7	
OCCCCNC(=S)S	0.97	
S=C(S)NC1CN2CCC1CC2 (centres undefined)	93.5	
CC(=O)Nc1nnc(S(N)(=O)=O)s1 [ACETAZOLAMIDE]		inhibition (INH) (Homo sapiens [4]): 25%
O=C(O)C1CCCCN1C(=S)S (centres undefined)	72	
CN(C)CCNC(=S)S	37.9	
O=C(O)[C@@H]1CCCN(C(=S)S)C1	41.3	
O=C(O)[C@H]1CCCN(C(=S)S)C1	86.2	
S=C(S)N1CCCCC1	0.92	
O=C(CN1CCN(C(=S)S)CC1)NC1CCCCC1	79.9	
O=C(O)C1CCCN(C(=S)S)C1 (centres undefined)	67.1	
OC1CCCN(C(=S)S)C1 (centres undefined)	7.6	
O=C(O)C1CCN(C(=S)S)CC1	77.9	
S=C(S)NCCc1ccccc1	25.1	
